Source: ChEMBL document CHEMBL1201862, “PubChem BioAssay data set” (2004)
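48-hour exposure; five concentrations; linearly interpolated endpoints. GI50: concentration for 50% inhibition of growth.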 Active and inactive are the calls of the source. No stated cut-off is given here; in the data, active = GI50 up to about 1.1 µM and inactive = higher.

Key:
Assay in all cases: DTP human tumour cell line panel, 48 h
CCRF-CEM = tested on: CCRF-CEM
COLO 205 = tested on: COLO 205
HCC 2998 = tested on: HCC 2998
HOP-62 = tested on: HOP-62
IGROV-1 = tested on: IGROV-1
K562 = tested on: K562
M14 = tested on: M14
NCI-H226 = tested on: NCI-H226
OVCAR-3 = tested on: OVCAR-3
OVCAR-4 = tested on: OVCAR-4
RPMI-8226 = tested on: RPMI-8226
SF-539 = tested on: SF-539
SK-MEL-2 = tested on: SK-MEL-2
SN12C = tested on: SN12C
U-251 = tested on: U-251
OVCAR-5 = tested on: OVCAR-5
SR = tested on: SR

Structure (SMILES) | GI50 (CCRF-CEM) | GI50 (COLO 205) | GI50 (HCC 2998) | GI50 (HOP-62) | GI50 (IGROV-1) | GI50 (K562) | GI50 (M14) | GI50 (NCI-H226) | GI50 (OVCAR-3) | GI50 (OVCAR-4) | GI50 (RPMI-8226) | GI50 (SF-539) | GI50 (SK-MEL-2) | GI50 (SN12C) | GI50 (U-251) | GI50 (OVCAR-5) | GI50 (SR)
O=C(NCC(=O)N1CCOC1=O)OCc1ccccc1 | > 100 µM (inactive) | > 100 µM (inactive) | > 100 µM (inactive) | > 100 µM (inactive) | > 100 µM (inactive) | > 100 µM (inactive) | > 100 µM (inactive) | > 100 µM (inactive) | > 100 µM (inactive) | > 100 µM (inactive) | > 100 µM (inactive) | > 100 µM (inactive) | > 100 µM (inactive) | > 100 µM (inactive) | > 100 µM (inactive) | – | –
OC1=CN=C(c2ccccc2)Oc2ccccc21 | > 100 µM (inactive) | > 100 µM (inactive) | > 100 µM (inactive) | 68.1 µM (inactive) | > 100 µM (inactive) | > 100 µM (inactive) | > 100 µM (inactive) | 33 µM (inactive) | 15.3 µM (inactive) | 47.6 µM (inactive) | > 100 µM (inactive) | 19 µM (inactive) | > 100 µM (inactive) | > 100 µM (inactive) | > 100 µM (inactive) | – | –
Cc1cc(N(CCC#N)S(=O)(=O)c2ccccc2)ccc1/C=C1\N=C(c2ccc(Cl)cc2)OC1=O | 55.5 µM (inactive) | > 100 µM (inactive) | > 100 µM (inactive) | – | > 100 µM (inactive) | > 100 µM (inactive) | > 100 µM (inactive) | 38.1 µM (inactive) | > 100 µM (inactive) | > 100 µM (inactive) | > 100 µM (inactive) | > 100 µM (inactive) | > 100 µM (inactive) | > 100 µM (inactive) | 54 µM (inactive) | > 100 µM (inactive) | –
CN(O)C(=O)Cc1ccccc1 | > 100 µM (inactive) | > 100 µM (inactive) | > 100 µM (inactive) | > 100 µM (inactive) | > 100 µM (inactive) | > 100 µM (inactive) | > 100 µM (inactive) | > 100 µM (inactive) | > 100 µM (inactive) | > 100 µM (inactive) | > 100 µM (inactive) | > 100 µM (inactive) | – | > 100 µM (inactive) | > 100 µM (inactive) | > 100 µM (inactive) | > 100 µM (inactive)
CC(C)(C)c1ccc2c(c1)C(O)(c1ccccc1)c1cc(C(C)(C)C)ccc1C2(O)C(F)(F)F (centres undefined) | 2.13 µM (inactive) | 1.82 µM (inactive) | 2.1 µM (inactive) | 1.29 µM (inactive) | 2.15 µM (inactive) | 2.56 µM (inactive) | 1.92 µM (inactive) | 1.05 µM (active) | 1.94 µM (inactive) | 1.83 µM (inactive) | – | 1.74 µM (inactive) | 1.76 µM (inactive) | 1.76 µM (inactive) | 1.81 µM (inactive) | 1.66 µM (inactive) | 2.13 µM (inactive)
COc1ccc2c(c1)N1CCc3cc(OC)c(OC)cc3C1C2 (centres undefined) | 61 µM (inactive) | > 100 µM (inactive) | 51.1 µM (inactive) | > 100 µM (inactive) | 28.4 µM (inactive) | 32.3 µM (inactive) | – | 35.5 µM (inactive) | – | 33.8 µM (inactive) | – | > 100 µM (inactive) | 87.5 µM (inactive) | 51.9 µM (inactive) | > 100 µM (inactive) | – | 34.2 µM (inactive)
O=C(CC1=Nc2nnc(CCCCCCCc3nnc4n3C(=O)C(CC(=O)c3ccccc3)=N4)n2C1=O)c1ccccc1 | > 100 µM (inactive) | > 100 µM (inactive) | > 100 µM (inactive) | > 100 µM (inactive) | > 100 µM (inactive) | > 100 µM (inactive) | > 100 µM (inactive) | > 100 µM (inactive) | > 100 µM (inactive) | – | > 100 µM (inactive) | > 100 µM (inactive) | – | > 100 µM (inactive) | > 100 µM (inactive) | > 100 µM (inactive) | > 100 µM (inactive)
N=C(N)NNC(=O)CCn1[nH]c(=O)c(Cl)c(Cl)c1=O | > 100 µM (inactive) | > 100 µM (inactive) | > 100 µM (inactive) | > 100 µM (inactive) | > 100 µM (inactive) | > 100 µM (inactive) | > 100 µM (inactive) | > 100 µM (inactive) | > 100 µM (inactive) | > 100 µM (inactive) | > 100 µM (inactive) | > 100 µM (inactive) | > 100 µM (inactive) | > 100 µM (inactive) | > 100 µM (inactive) | > 100 µM (inactive) | –
Cc1ccc(C)c(NC(=O)CCC(=O)CC(=O)C(C)(C)C)c1 | > 100 µM (inactive) | > 100 µM (inactive) | > 100 µM (inactive) | > 100 µM (inactive) | > 100 µM (inactive) | > 100 µM (inactive) | > 100 µM (inactive) | – | > 100 µM (inactive) | > 100 µM (inactive) | > 100 µM (inactive) | > 100 µM (inactive) | > 100 µM (inactive) | > 100 µM (inactive) | > 100 µM (inactive) | > 100 µM (inactive) | –
O=S(=O)(C1=CC(S(=O)(=O)c2ccccc2)CN(Cc2ccccc2)C1c1cccc2ccccc12)c1ccccc1 (centres undefined) | > 69 µM (inactive) | – | > 69 µM (inactive) | > 69 µM (inactive) | > 69 µM (inactive) | > 69 µM (inactive) | > 69 µM (inactive) | 14.6 µM (inactive) | > 69 µM (inactive) | > 69 µM (inactive) | > 69 µM (inactive) | > 69 µM (inactive) | > 69 µM (inactive) | > 69 µM (inactive) | > 69 µM (inactive) | > 69 µM (inactive) | –
O=C1[C@@H]2C(c3ccncc3)=NO[C@@H]2C(=O)N1c1ccc(Cc2ccc(N3C(=O)[C@H]4C(c5ccncc5)=NO[C@H]4C3=O)cc2)cc1 | > 100 µM (inactive) | > 100 µM (inactive) | > 100 µM (inactive) | > 100 µM (inactive) | > 100 µM (inactive) | > 100 µM (inactive) | > 100 µM (inactive) | 73.8 µM (inactive) | > 100 µM (inactive) | > 100 µM (inactive) | > 100 µM (inactive) | > 100 µM (inactive) | > 100 µM (inactive) | > 100 µM (inactive) | > 100 µM (inactive) | > 100 µM (inactive) | –
O=C(Nc1ccn(CCI)c(=O)n1)c1ccccc1 | > 100 µM (inactive) | > 100 µM (inactive) | – | > 100 µM (inactive) | > 100 µM (inactive) | > 100 µM (inactive) | > 100 µM (inactive) | > 100 µM (inactive) | > 100 µM (inactive) | > 100 µM (inactive) | > 100 µM (inactive) | > 100 µM (inactive) | > 100 µM (inactive) | > 100 µM (inactive) | > 100 µM (inactive) | > 100 µM (inactive) | > 100 µM (inactive)
O=C1OC(c2ccccc2)=N/C1=C\c1ccc2ccccc2c1 | > 100 µM (inactive) | > 100 µM (inactive) | – | – | > 100 µM (inactive) | > 100 µM (inactive) | > 100 µM (inactive) | – | > 100 µM (inactive) | > 100 µM (inactive) | > 100 µM (inactive) | > 100 µM (inactive) | > 100 µM (inactive) | > 100 µM (inactive) | > 100 µM (inactive) | > 100 µM (inactive) | –
Sc1nnc(-c2ccnc(-c3nnc(S)[nH]3)c2)[nH]1 | > 100 µM (inactive) | > 100 µM (inactive) | > 100 µM (inactive) | > 100 µM (inactive) | > 100 µM (inactive) | > 100 µM (inactive) | > 100 µM (inactive) | > 100 µM (inactive) | > 100 µM (inactive) | > 100 µM (inactive) | > 100 µM (inactive) | > 100 µM (inactive) | > 100 µM (inactive) | > 100 µM (inactive) | > 100 µM (inactive) | > 100 µM (inactive) | –
COC(=O)C(C(=O)C(=O)Nc1ccccc1OC)c1csc(-n2nc(-c3ccccc3)cc2-c2ccccc2)n1 (centres undefined) | > 100 µM (inactive) | > 100 µM (inactive) | > 100 µM (inactive) | > 100 µM (inactive) | > 100 µM (inactive) | > 100 µM (inactive) | > 100 µM (inactive) | > 100 µM (inactive) | > 100 µM (inactive) | > 100 µM (inactive) | > 100 µM (inactive) | – | – | > 100 µM (inactive) | > 100 µM (inactive) | > 100 µM (inactive) | 90.8 µM (inactive)
CCOC(=O)c1nc(C)oc1C(F)(F)F | > 100 µM (inactive) | > 100 µM (inactive) | > 100 µM (inactive) | > 100 µM (inactive) | > 100 µM (inactive) | > 100 µM (inactive) | > 100 µM (inactive) | > 100 µM (inactive) | > 100 µM (inactive) | > 100 µM (inactive) | – | > 100 µM (inactive) | > 100 µM (inactive) | > 100 µM (inactive) | > 100 µM (inactive) | > 100 µM (inactive) | > 100 µM (inactive)
COCOC1CCCC[C@@]1(OCCOCCO[C@@]1(c2ccccc2)CCCC[C@H]1OCOC)c1ccccc1 (some centres undefined) | > 100 µM (inactive) | > 100 µM (inactive) | > 100 µM (inactive) | > 100 µM (inactive) | > 100 µM (inactive) | > 100 µM (inactive) | 44.7 µM (inactive) | > 100 µM (inactive) | > 100 µM (inactive) | > 100 µM (inactive) | > 100 µM (inactive) | – | > 100 µM (inactive) | > 100 µM (inactive) | > 100 µM (inactive) | > 100 µM (inactive) | > 100 µM (inactive)
